Results as given in article PMC11121064 (International Journal of Molecular Sciences, 2024).
Where two headings read alike, the source gives them in different places.

Legend:
red blood cells (RBCs) = test: Erythrotoxicity (RBC hemolysis, lysis assay); type: cell-based, human; conditions: 24 h, 50 µmol/L and 100 µmol/L, 2% RBC suspension
Protocol: Their erythrotoxicity was also assessed. Red blood cells are model cells used in basic studies of the biocompatibility of new compounds and some medical materials. […] The amount of hemoglobin released from damaged cells was measured using a spectrophotometer.
Erythrotoxicity was assessed in a 2% erythrocyte suspension following 1 h and 24 h of incubation with the tested compounds.
(§1) The plasma was used for the hemostasis tests.
The influence of the compounds on the red blood cells (RBCs)’ membrane integrity was assessed using a lysis assay, as described previously. Briefly, the tested compounds (1 to 100 μmol/L) were incubated in a 2% RBC suspension in 0.9% NaCl at 37 °C for 24 h; solvent was used as the control. The samples were then centrifuged at 3000× g for 10 min, and the absorbance of the supernatant was determined at 550 nm (maximum absorbance for hemoglobin). The results are presented as the degree of hemolysis, i.e., the percentage of released hemoglobin. A sample containing Triton X-100 was used as the positive control (100% hemolysis), whereas a sample of saline solution represented spontaneous hemolysis of the RBCs (control).

[1] = test system: extrinsic coagulation pathway; test: Prothrombin time (PT) and INR in human citrated plasma
Protocol: The first stage assessed the changes in plasma hemostasis occurring under the influence of the five test compounds. Plasma was incubated with the tested compounds and ligands at six different concentrations ranging from 0.5 to 100 µmol/L. The plasma was obtained from five different volunteers. To evaluate the impact on the extrinsic coagulation pathway, the prothrombin time (PT) was determined in human citrated plasma, expressed in seconds and as the international normalized ratio (INR) (Figure 6 and Figure 7).
as §1
The results are presented as means ± standard deviation (SD).

[2] = test system: human BJ fibroblast cell line; test: MTT reduction assay, BJ fibroblasts; type: cell-based; conditions: 72 h
Protocol: (§2) The cytotoxic activity was measured against the melanoma A375 tumor cell line (ECACC) and the human BJ fibroblast cell line (ATCC) using an MTT reduction assay. The selectivity index (SI) was calculated using the following formula: SI = IC50 (BJ)/ IC50 (A375).
(§3) The A375 cell line was purchased from the European Collection of Authenticated Cell Cultures (ECACC, Salisbury, UK) and the BJ human fibroblast cell line from the American Type Culture Collection (ATCC, Manassas, VA, USA). All the cell lines were grown as a monolayer in standard conditions: 37 °C, 100% humidity, under an atmosphere of 5% CO2. The A375 cells were cultured in Dulbecco’s Modified Eagle Medium supplemented with 15% fetal calf serum and 50 IU/mL penicillin/streptomycin. The BJ cell line was grown in EMEM with EBSS, NEAA and sodium pyruvate with L-Glutamine supplemented, 10% fetal bovine serum and 50 IU/mL penicillin/streptomycin.
(§4) Next, the cells were seeded in 96-well plates at a density of 5000 cells per well and incubated overnight to reach the logarithmic growth phase. […] After 72 h, 10 µL of MTT solution (5 g/L) was added into each well and incubated for an additional four hours. Subsequently, the medium was removed, and 100 µL of dimethyl sulfoxide (DMSO) was added into each well. The absorbance was then measured at 570 nm using a SPECTROstar Nano microplate reader (BMG Biotech Inc., Cary, NC, USA)/Tecan Spark 10M. The mean value from three independent BJ and A375 cell cultures was taken to calculate the cell viability, expressed as a percentage of the control values, i.e., untreated cells assumed as 100%.

[3] = test system: clot formation and fibrinolysis in human citrate plasma; test: Clot formation and fibrinolysis test (CL-test); conditions: for CLAUC overall potential for clot formation and fibrinolysis / Fmax maximum clotting / Fvo initial plasma clotting velocity / Lmax maximum lysis / Lvo initial clot fibrinolysis velocity / Sc area under the curve of stable clot formation / Sf area under the fibrinolysis curve / Sr area under the clot formation curve / Tc clot stabilization time / Tf plasma clotting time / Tl fibrinolysis time / Tt thrombin time: mean, n = 3
Protocol: Following this, the impact of the tested complex compounds and their ligands on the overall clot formation and fibrinolysis potential (CLAUC) and individual kinetic parameters was assessed using the CL-test. The analysis was performed using plasma from three different donors.
The blood samples used were residual materials from routine diagnostic studies, destined for disposal as medical waste. […] Platelet-poor plasma (PPP) and red blood cells were obtained using centrifugation at 3000× g for 10 min at room temperature using a Mikro 22R centrifuge (Hettich Zentrifugen, Tuttlingen, Germany). The plasma was used for the hemostasis tests. Before use, the centrifuged erythrocyte mass was washed three times with physiological saline solution to remove the plasma protein residues and other blood cells.
The influence of the compounds on the overall hemostasis potential was determined using the CL-test through continuous measurement of changes in optical transmittance, as described previously [53, 54]. The experiments were conducted using three-fold diluted human citrate plasma, t-PA and thrombin. […] The results are presented as means ± SD (n = 3). The curves were used to determine the kinetic parameters of clot formation, stabilization and fibrinolysis using dedicated software [51]. The following parameters of clot formation were determined: Tt—thrombin time (s), Fmax—maximum clotting (%T), Tf—plasma clotting time (s), Fvo—initial plasma clotting velocity (%T/min), Sr—area under the clot formation curve (%Txmin). The parameters of the clot stabilization phase comprised Tc—clot stabilization time (s) and Sc—area under the curve of stable clot formation (%Txmin). The parameters of fibrinolysis comprised Lmax—maximum lysis (%T), Tl—fibrinolysis time (s), Lvo—initial clot fibrinolysis velocity (%T/min) and Sf—area under the fibrinolysis curve (%Txmin). Additionally, the overall potential for clot formation and fibrinolysis, i.e., CLAUC (%Txmin), was also estimated.

[4] = test system: melanoma A375 tumor cell line; test: MTT reduction assay, A375 melanoma cells; type: cell-based, human
Protocol: as §2
as §3, with “The A375 cells were cultured in Dulbecco’s Modified Eagle Medium supplemented with 15% fetal calf serum and 50 IU/mL penicillin/streptomycin.” left out
as §4

[5] = test system: intrinsic coagulation pathway; conditions: 100 µmol/L (highest concentration), mean within reference range 26.7–40.0 s
Protocol: To evaluate the intrinsic coagulation pathway, the plasma was mixed with the tested compounds at the same concentrations as in the PT analysis, and the activated partial thromboplastin time (APTT) was measured.
as §1
The PT, APTT and TT were measured using a Coag Chrom 3003 coagulometer (Bio-Ksel, Grudziadz, Poland) according to the manufacturer’s instructions, using commercially available reagents (Bio-Ksel, Grudziadz, Poland). The experiment was conducted as three independent experiments (in duplicate); distilled water or methanol was used as the control.

O=S(=O)([O-])[O-].[Ag+].[Ag+] [Ag2SO4, reference compound]
erythrocyte hemolysis (red blood cells (RBCs)): > 60%
effect on prothrombin time (PT) ([1]; 100 µmol/L, human citrated plasma): significantly lengthened

O=[N+]([O-])[O-].[Ag+] [AgNO3, silver(I) nitrate]
erythrocyte hemolysis (red blood cells (RBCs)): > 60%
IC50 [2]: > 100 µM
effect on CLAUC and kinetic parameters of clot formation and lysis ([3]; entire concentration range 0.5–100 µmol/L): no significant differences
effect on A375 cell viability ([4]; 72 h of exposure): dose-dependent reduction
IC50 ([4]; MTT, 72 h): 11.1 ± 0.8 µM

Cc1ncc([N+](=O)[O-])n1CCO.Cc1ncc([N+](=O)[O-])n1CCO.Cc1ncc([N+](=O)[O-])n1CCO.Cc1ncc([N+](=O)[O-])n1CCO.O=S(=O)([O-])[O-].[Ag+].[Ag+] [[(MTZ)2Ag]2SO4, metronidazole silver(I) sulfate]
CLAUC overall potential for clot formation and fibrinolysis ([3]; 0.5 µmol/L): 348.3 %*min
Fmax maximum clotting ([3]; 0.5 µmol/L): 70.6%
Fvo initial plasma clotting velocity ([3]; 0.5 µmol/L): 160.0 %/min
Lmax maximum lysis ([3]; 0.5 µmol/L): 69.8%
Lvo initial clot fibrinolysis velocity ([3]; 0.5 µmol/L): 20.3 %/min
Sc area under the curve of stable clot formation ([3]; 0.5 µmol/L): 165.1 %*min
Sf area under the fibrinolysis curve ([3]; 0.5 µmol/L): 135.9 %*min
Sr area under the clot formation curve ([3]; 0.5 µmol/L): 47.3 %*min
Tc clot stabilization time ([3]; 0.5 µmol/L): 144.3 s
Tf plasma clotting time ([3]; 0.5 µmol/L): 59.1 s
Tl fibrinolysis time ([3]; 0.5 µmol/L): 196.7 s
Tt thrombin time ([3]; 0.5 µmol/L): 20.1 s
CLAUC overall potential for clot formation and fibrinolysis ([3]; 1.0 µmol/L): 417.7 %*min
Fmax maximum clotting ([3]; 1.0 µmol/L): 73.8%
Fvo initial plasma clotting velocity ([3]; 1.0 µmol/L): 181.0 %/min
Lmax maximum lysis ([3]; 1.0 µmol/L): 73.5%
Lvo initial clot fibrinolysis velocity ([3]; 1.0 µmol/L): 19.8 %/min
Sc area under the curve of stable clot formation ([3]; 1.0 µmol/L): 207.8 %*min
Sf area under the fibrinolysis curve ([3]; 1.0 µmol/L): 157.6 %*min
Sr area under the clot formation curve ([3]; 1.0 µmol/L): 52.4 %*min
Tc clot stabilization time ([3]; 1.0 µmol/L): 174.3 s
Tf plasma clotting time ([3]; 1.0 µmol/L): 61.2 s
Tl fibrinolysis time ([3]; 1.0 µmol/L): 226.3 s
Tt thrombin time ([3]; 1.0 µmol/L): 20.5 s
CLAUC overall potential for clot formation and fibrinolysis ([3]; 5.0 µmol/L): 411.1 %*min
Fmax maximum clotting ([3]; 5.0 µmol/L): 78.6%
Fvo initial plasma clotting velocity ([3]; 5.0 µmol/L): 212.3 %/min
Lmax maximum lysis ([3]; 5.0 µmol/L): 77.9%
Lvo initial clot fibrinolysis velocity ([3]; 5.0 µmol/L): 24.8 %/min
Sc area under the curve of stable clot formation ([3]; 5.0 µmol/L): 210.7 %*min
Sf area under the fibrinolysis curve ([3]; 5.0 µmol/L): 155.5 %*min
Sr area under the clot formation curve ([3]; 5.0 µmol/L): 44.8 %*min
Tc clot stabilization time ([3]; 5.0 µmol/L): 166.7 s
Tf plasma clotting time ([3]; 5.0 µmol/L): 50.2 s
Tl fibrinolysis time ([3]; 5.0 µmol/L): 204.7 s
Tt thrombin time ([3]; 5.0 µmol/L): 19.7 s
CLAUC overall potential for clot formation and fibrinolysis ([3]; 10.0 µmol/L): 406.3 %*min
Fmax maximum clotting ([3]; 10.0 µmol/L): 75.7%
Fvo initial plasma clotting velocity ([3]; 10.0 µmol/L): 178.3 %/min
Lmax maximum lysis ([3]; 10.0 µmol/L): 75.0%
Lvo initial clot fibrinolysis velocity ([3]; 10.0 µmol/L): 21.5 %/min
Sc area under the curve of stable clot formation ([3]; 10.0 µmol/L): 203.7 %*min
Sf area under the fibrinolysis curve ([3]; 10.0 µmol/L): 156.2 %*min
Sr area under the clot formation curve ([3]; 10.0 µmol/L): 46.4 %*min
Tc clot stabilization time ([3]; 10.0 µmol/L): 166.7 s
Tf plasma clotting time ([3]; 10.0 µmol/L): 55.0 s
Tl fibrinolysis time ([3]; 10.0 µmol/L): 208.3 s
Tt thrombin time ([3]; 10.0 µmol/L): 20.7 s
CLAUC overall potential for clot formation and fibrinolysis ([3]; 50.0 µmol/L): 421.1 %*min
Fmax maximum clotting ([3]; 50.0 µmol/L): 76.9%
Fvo initial plasma clotting velocity ([3]; 50.0 µmol/L): 159.6 %/min
Lmax maximum lysis ([3]; 50.0 µmol/L): 74.3%
Lvo initial clot fibrinolysis velocity ([3]; 50.0 µmol/L): 21.7 %/min
Sc area under the curve of stable clot formation ([3]; 50.0 µmol/L): 184.0 %*min
Sf area under the fibrinolysis curve ([3]; 50.0 µmol/L): 175.2 %*min
Sr area under the clot formation curve ([3]; 50.0 µmol/L): 47.5 %*min
Tc clot stabilization time ([3]; 50.0 µmol/L): 158.7 s
Tf plasma clotting time ([3]; 50.0 µmol/L): 58.4 s
Tl fibrinolysis time ([3]; 50.0 µmol/L): 200.7 s
Tt thrombin time ([3]; 50.0 µmol/L): 20.7 s
CLAUC overall potential for clot formation and fibrinolysis ([3]; 100.0 µmol/L): 390.3 %*min
Fmax maximum clotting ([3]; 100.0 µmol/L): 72.3%
Fvo initial plasma clotting velocity ([3]; 100.0 µmol/L): 159.3 %/min
Lmax maximum lysis ([3]; 100.0 µmol/L): 72.0%
Lvo initial clot fibrinolysis velocity ([3]; 100.0 µmol/L): 22.1 %/min
Sc area under the curve of stable clot formation ([3]; 100.0 µmol/L): 194.4 %*min
Sf area under the fibrinolysis curve ([3]; 100.0 µmol/L): 145.2 %*min
Sr area under the clot formation curve ([3]; 100.0 µmol/L): 50.8 %*min
Tc clot stabilization time ([3]; 100.0 µmol/L): 166.3 s
Tf plasma clotting time ([3]; 100.0 µmol/L): 62.6 s
Tl fibrinolysis time ([3]; 100.0 µmol/L): 219.7 s
Tt thrombin time ([3]; 100.0 µmol/L): 20.5 s
prolongation of PT and INR beyond the reference range ([1]; up to 100 µmol/L, reference PT 9.7–14.6 s, INR 0.8–1.2): do not cause pathological prolongation
effect on APTT ([5]; listed as metronidazole complex with Ag2SO4): significantly prolonged
effect on APTT ([5]; listed as metronidazole with Ag2SO4): statistically significant prolongation
